≈ marks a conversion by molar mass, not a printed value. Where two headings read alike, the source gives them in different places.
Key:
[1] = test system: K. pneumoniae NVT1001 and its ΔompK35/36 and/or ΔramR mutants; experiment: Etest MIC, OmpK35/36 loss and AcrAB-TolC overexpression (ΔramR) strains (Table 6); assay type: cell-based, Klebsiella pneumoniae; settings: Klebsiella pneumoniae
Outline: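 MICs were read by Etest strip following the manufacturer's instructions, and values falling between standard two-fold dilutions were rounded up to the next two-fold step. Ceftazidime and cefotaxime were also tested by CLSI broth microdilution and interpreted against CLSI 2017 breakpoints; cephalothin used CLSI 2015 and moxifloxacin EUCAST 2017.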

[2] = test system: K. pneumoniae NVT1001 and ΔramR strains with tet resistance gene plasmids; experiment: Etest MIC of tetracyclines, AcrAB-TolC overexpression (ΔramR) and/or tet resistance gene (Table 14); assay type: cell-based, Klebsiella pneumoniae; settings: Klebsiella pneumoniae
Description: DNA fragments of the resistance genes along with their flanking regions were amplified from clinical plasmids via PCR with specific primer pairs. The resulting PCR fragments were digested and then cloned into the plasmid pACYC177 or pACYC184. The resulting plasmids were then transformed into K. pneumoniae strain NVT1001 via electroporation. The recombinant bacteria were plated onto LB agar plates containing kanamycin (50 mg/L) or chloramphenicol (50 mg/L), and the presence of the cloned gene was confirmed via PCR and DNA sequencing.
(§1) The MICs of antibiotics were determined using the Etest (Biodisk AB, Sweden) according to the manufacturer's instructions. The MICs from the Etest, which fall between standard two-fold dilutions, were rounded up to the next highest two-fold value. The MICs of ceftazidime and cefotaxime against K. pneumoniae NVT1001 harbouring the pACYC177 plasmid with blaOXA-48 were further determined using a broth microdilution test according to the recommendations of the CLSI,^25 and the results were interpreted according to the breakpoints established by the CLSI in 2017.^25 Meanwhile, due to the lack of CLSI breakpoints in 2016 and 2017, the results for cephalothin were interpreted according to the breakpoints established by the CLSI in 2015,^26 and the results for moxifloxacin were interpreted according to the breakpoints established by the EUCAST in 2017.^27

[3] = test system: A. baumannii KW1 and its AdeR/AdeS mutants; experiment: Etest MIC, AdeABC overexpression via AdeR or AdeS mutation (Table 16); assay type: cell-based, Acinetobacter baumannii
Text: DNA fragments of the entire adeR, adeS, gyrA and parC along with their flanking regions were amplified from A. baumannii KW1 using PCR with specific primer pairs and then cloned into plasmid pUT-KB. The QuikChange site-directed mutagenesis kit (Stratagene) was used to generate mutations in the adeR, adeS, gyrA and parC genes in the plasmids using the methods described by the manufacturer. For homologous recombination, plasmids containing mutations in the adeR, adeS, gyrA or parC gene were transformed into E. coli S17-1 λpir^23 via electroporation and mobilized into A. baumannii KW1 via conjugation. Single-crossover strains were selected from Luria-Bertani (LB) plates supplemented with cefotaxime (1 μg/ml) and kanamycin ([…]), as the growth of non-A. baumannii contaminants is suppressed by cefotaxime (1 μg/ml). The kanamycin-resistant transconjugants were selected and the insertion of plasmids was verified via PCR. After incubation in 20 ml brain heart infusion (BHI) broth for 6 hours in the absence of kanamycin at 37° C., the fully grown cultures were spread onto LB plates supplemented with 10% sucrose. After the double crossover occurred, the sucrose-resistant and kanamycin-susceptible colonies were selected, and the gene mutations were confirmed via PCR.
as §1

[4] = test system: A. baumannii KW1 strains with tet resistance gene plasmids; experiment: Etest MIC of tetracyclines, tet resistance gene (Table 20); assay type: cell-based, Acinetobacter baumannii; settings: for MIC: Acinetobacter baumannii; for increase in the MIC: production of Tet(A), Tet(B) or Tet(C)
Description: (§2) DNA fragments of the resistance genes along with their flanking regions were amplified from clinical plasmids via PCR with specific primer pairs. The resulting PCR fragments were digested and then cloned into the plasmid pYMAb5 or pYMAb5Tc. The resulting plasmids were then transformed into A. baumannii KW1 via electroporation.
as §1

[5] = test system: K. pneumoniae NVT1001 ΔramRΔompK35/36 mutant and its revertants; experiment: Etest MIC, ΔramRΔompK35/36 mutant and its revertants (Table 7); assay type: cell-based; settings: Klebsiella pneumoniae
Text: The allelic-exchange method was used to restore the wild-type gene in the K. pneumoniae NVT1001 mutants with constructed chromosome-mediated resistance mechanisms, as described by Tsai et al.^19 Briefly, a DNA fragment of the entire wild-type gene sequence along with flanking regions was amplified from K. pneumoniae NVT1001 using PCR with specific primers. The resulting PCR fragment was digested and then cloned into pUT-KB. For homologous recombination, this plasmid was transformed into E. coli S17-1 λpir^23 via electroporation and mobilized into the K. pneumoniae NVT1001 mutant via conjugation. […] After incubation in 20 mL BHI broth for 6 hours at 37° C. in the absence of kanamycin, the fully grown cultures were spread onto LB agar plates supplemented with 10% sucrose. After the double crossover occurred, the sucrose-resistant and kanamycin-susceptible colonies were selected, and the restoration of the wild-type gene was confirmed via DNA sequencing.
as §1

[6] = test system: A. baumannii KW1 strains with β-lactamase plasmids; experiment: Etest MIC of β-lactams, extended-spectrum β-lactamase, AmpC β-lactamase or carbapenemase (Table 18); assay type: cell-based, Acinetobacter baumannii
Description: as §2, §1

[7] = NVT1001, Tet(A) on pACYC177, read-out: MIC
[8] = NVT1001, Tet(B) on pACYC177, read-out: MIC
[9] = NVT1001, Tet(C) on pACYC177, read-out: MIC
[10] = NVT1001, Tet(D) on pACYC177, read-out: MIC
[11] = NVT1001, Tet(M) on pACYC177, read-out: MIC
[12] = ΔramRΔ35/36, ΔramRΔompK35/36 mutant
[13] = ΔramRΔompK35/36::ompK35/36 revertant
[14] = ΔramRΔompK35/36::ompK35 revertant
[15] = ΔramRΔompK35/36::ompK36 revertant
[16] = ΔramRΔompK35/36::ramR revertant
[17] = ΔramRΔompK35/36::ramR::ompK35/36 revertant
[18] = ΔramRΔompK35/36::ramR::ompK35 revertant
[19] = ΔramRΔompK35/36::ramR::ompK36 revertant
[20] = NVT1001, no supplemental plasmid, read-out: MIC

Compound | MIC ([1]; Δ36, ΔompK36 mutant) | MIC [2, 7] | MIC [2, 8] | MIC [2, 9] | MIC [2, 10] | MIC [2, 11] | MIC ([2]; ΔramR, Tet(A) on pACYC177) | MIC ([2]; ΔramR, Tet(B) on pACYC177) | MIC ([2]; ΔramR, Tet(C) on pACYC177) | MIC ([2]; ΔramR, Tet(D) on pACYC177) | MIC ([2]; ΔramR, Tet(M) on pACYC177) | MIC ([4]; KW1, Tet(A) on pYMAb5) | MIC ([4]; KW1, Tet(B) on pYMAb5) | MIC ([4]; KW1, Tet(M) on pYMAb5) | MIC ([4]; KW1, no supplemental plasmid) | MIC ([4]; KW1 with shuttle vector pYMAb5) | increase in the MIC [4] | MIC ([1]; WT, NVT1001, read-out: MIC) | MIC ([1]; Δ35, ΔompK35 mutant) | MIC ([1]; Δ35/36, ΔompK35/36 mutant) | also measured
CN(C)[C@@H]1C(O)=C(C(N)=O)C(=O)[C@@]2(O)C(O)=C3C(=O)c4c(O)cccc4[C@@](C)(O)[C@H]3C[C@@H]12 [Tetracycline, tetracycline] | 2 µg/mL (≈ 4.5 µM) | > 256 µg/mL | > 256 µg/mL | 16 µg/mL | > 256 µg/mL | 16 µg/mL | > 256 µg/mL | > 256 µg/mL | 256 µg/mL | > 256 µg/mL | 128 µg/mL | 128 µg/mL | > 256 µg/mL | 48 µg/mL | 3 µg/mL | 3 µg/mL | 4 fold | – | – | – | MIC ([3]; Acinetobacter baumannii, A91V mutant (AdeR)): 12 µg/mL; MIC ([3]; Acinetobacter baumannii, A94V mutant (AdeS)): 6 µg/mL; MIC ([3]; Acinetobacter baumannii, D20N mutant (AdeR)): 8 µg/mL; MIC ([3]; Acinetobacter baumannii, G30D mutant (AdeS)): 8 µg/mL; MIC ([3]; Acinetobacter baumannii, KW1, read-out: MIC): 3 µg/mL; MIC ([3]; Acinetobacter baumannii, P116L mutant (AdeR)): 6 µg/mL; MIC ([3]; Acinetobacter baumannii, R152K mutant (AdeS)): 6 µg/mL; MIC ([3]; Acinetobacter baumannii, T153M mutant (AdeS)): 8 µg/mL
C[C@H]1c2cccc(O)c2C(=O)C2=C(O)[C@]3(O)C(=O)C(C(N)=O)=C(O)[C@@H](N(C)C)[C@@H]3[C@@H](O)[C@@H]21 [Doxycycline, doxycycline] | 4 µg/mL (≈ 9 µM) | > 256 µg/mL | > 256 µg/mL | 16 µg/mL | 128 µg/mL | 32 µg/mL | > 256 µg/mL | > 256 µg/mL | 128 µg/mL | 256 µg/mL | 128 µg/mL | 12 µg/mL | 32 µg/mL | 192 µg/mL | 0.75 µg/mL | 0.75 µg/mL | 4 fold | 4 µg/mL (≈ 9 µM) | 4 µg/mL (≈ 9 µM) | 4 µg/mL (≈ 9 µM) | MIC ([1]; ΔramR mutant): 64 µg/mL (≈ 144 µM); MIC ([1]; ΔramRΔ35, ΔramRΔompK35 mutant): 64 µg/mL (≈ 144 µM); MIC [1, 12]: 128 µg/mL (≈ 288 µM); MIC ([1]; ΔramRΔ36, ΔramRΔompK36 mutant): 64 µg/mL (≈ 144 µM); MIC [5, 13]: 64 µg/mL; MIC [5, 14]: 64 µg/mL; MIC [5, 15]: 64 µg/mL; MIC [5, 16]: 4 µg/mL; MIC [5, 17]: 4 µg/mL; MIC [5, 18]: 4 µg/mL; MIC [5, 19]: 4 µg/mL; MIC ([5]; ΔramRΔompK35/36 mutant): 128 µg/mL; MIC [2, 20]: 4 µg/mL; MIC ([2]; ΔramR, no supplemental plasmid): 64 µg/mL
CC(C)(O/N=C(\C(=O)N[C@@H]1C(=O)N2C(C(=O)[O-])=C(C[n+]3ccccc3)CS[C@H]12)c1csc(N)n1)C(=O)O [CAZ] | – | – | – | – | – | – | – | – | – | – | – | – | – | – | – | – | – | – | – | – | MIC ([3]; A91V mutant (AdeR)): 16 µg/mL; MIC ([3]; A94V mutant (AdeS)): 8 µg/mL; MIC ([3]; D20N mutant (AdeR)): 12 µg/mL; MIC ([3]; G30D mutant (AdeS)): 8 µg/mL; MIC ([3]; KW1): 4 µg/mL; MIC ([3]; P116L mutant (AdeR)): 8 µg/mL; MIC ([3]; R152K mutant (AdeS)): 8 µg/mL; MIC ([3]; T153M mutant (AdeS)): 8 µg/mL; MIC ([6]; KW1, no supplemental plasmid): 4 µg/mL; MIC ([6]; KW1 with ADC-30 on pYMAb5): >256 µg/mL; MIC ([6]; KW1 with CTX-M-15 on pYMAb5): >256 µg/mL; MIC ([6]; KW1 with IMP-1 on pYMAb5): 48 µg/mL; MIC ([6]; KW1 with NDM-1 on pYMAb5): >256 µg/mL; MIC ([6]; KW1 with OXA-23 on pYMAb5): 3 µg/mL; MIC ([6]; KW1 with OXA-58 on pYMAb5): 3 µg/mL; MIC ([6]; KW1 with OXA-66 on pYMAb5): 3 µg/mL; MIC ([6]; KW1 with OXA-72 on pYMAb5): 3 µg/mL; MIC ([6]; KW1 with VEB-3 on pYMAb5): >256 µg/mL; MIC ([6]; KW1 with VIM-1 on pYMAb5): >256 µg/mL; MIC ([6]; KW1 with shuttle vector pYMAb5): 3 µg/mL
CN(C)c1ccc(O)c2c1C[C@H]1C[C@H]3[C@H](N(C)C)C(O)=C(C(N)=O)C(=O)[C@@]3(O)C(O)=C1C2=O [Minocycline] | 4 µg/mL (≈ 8.74 µM) | 32 µg/mL | 32 µg/mL | 4 µg/mL | 128 µg/mL | 32 µg/mL | > 256 µg/mL | > 256 µg/mL | 64 µg/mL | > 256 µg/mL | > 256 µg/mL | 1.5 µg/mL | 1.5 µg/mL | 2 µg/mL | 0.38 µg/mL | 0.25 µg/mL | 4 fold | 4 µg/mL (≈ 8.74 µM) | 4 µg/mL (≈ 8.74 µM) | 4 µg/mL (≈ 8.74 µM) | MIC ([1]; ΔramR mutant): 64 µg/mL (≈ 140 µM); MIC ([1]; ΔramRΔ35, ΔramRΔompK35 mutant): 128 µg/mL (≈ 280 µM); MIC [1, 12]: 128 µg/mL (≈ 280 µM); MIC ([1]; ΔramRΔ36, ΔramRΔompK36 mutant): 128 µg/mL (≈ 280 µM); MIC [5, 13]: 128 µg/mL; MIC [5, 14]: 128 µg/mL; MIC [5, 15]: 128 µg/mL; MIC [5, 16]: 4 µg/mL; MIC [5, 17]: 4 µg/mL; MIC [5, 18]: 4 µg/mL; MIC [5, 19]: 4 µg/mL; MIC ([5]; ΔramRΔompK35/36 mutant): 128 µg/mL; MIC [2, 20]: 4 µg/mL; MIC ([2]; ΔramR, no supplemental plasmid): 64 µg/mL
